The CheMixHub ionic liquid set

Test: xn = mol fraction of the nth substance listed

CCCCCCCO + CCCC[n+]1ccn(C)c1.O=S(=O)([N-]S(=O)(=O)C(F)(F)F)C(F)(F)F
298 K, 100 kPa
Conditions	viscosity [mPa·s]
x2 = 0	5.956
x2 = 0.7975	33.43
x2 = 0.9013	40.9

CCCC[n+]1ccn(C)c1.N#C[S-] + CCCC[n+]1ccn(C)c1.O=S(=O)([N-]S(=O)(=O)C(F)(F)F)C(F)(F)F
100 kPa
Conditions	viscosity [mPa·s]
283.15 K, x2 = 0.25	133.5
288.15 K, x2 = 0	104.5

CCCO + CCCC[n+]1ccn(C)c1.O=S(=O)([N-]S(=O)(=O)C(F)(F)F)C(F)(F)F
Conditions	viscosity [mPa·s]
298 K, 100 kPa, x2 = 0	1.929

ClCCCl + CCCC[n+]1ccn(C)c1.O=S(=O)([N-]S(=O)(=O)C(F)(F)F)C(F)(F)F
Conditions	electrical conductivity [S/m]
294.5 K, 100 kPa, x2 = 0.02555	0.68

OCC(F)(F)F + CCCC[n+]1ccn(C)c1.O=S(=O)([N-]S(=O)(=O)C(F)(F)F)C(F)(F)F
101 kPa
Conditions	viscosity [mPa·s]
278.15 K, x1 = 0.2626	65.4
278.15 K, x1 = 0.4753	30.28
278.15 K, x1 = 0.6153	16.99
278.15 K, x1 = 0.7568	9.09
293.15 K, x1 = 0.6153	10.18
298.15 K, x1 = 0.2626	27.45
298.15 K, x1 = 0.7568	5.03
313.15 K, x1 = 0.4753	9.42
318.15 K, x1 = 0.4753	8.31
323.15 K, x1 = 1	1.02
333.15 K, x1 = 0.2626	9.76

CCCCCCCO + CCCC[n+]1ccn(C)c1.O=[N+]([O-])[O-]
100 kPa, x2 = 0
Conditions	viscosity [mPa·s]
293.15 K	7.03
303.15 K	5.03
313.15 K	3.71
323.15 K	2.79

CCOS(=O)(=O)[O-].CC[NH+]=C(N(C)C)N(C)C + CCCO
100 kPa, x2 = 0
Conditions	viscosity [mPa·s]
293.15 K	670
323.15 K	91

C[C@H](N)C(=O)[O-].C[N+](C)(C)CCO + CCCO
100 kPa
Conditions	viscosity [mPa·s]
287.96 K, x1 = 0.0997	7.8
287.99 K, x1 = 0.2007	22.8
288.02 K, x1 = 0.3915	119
288.03 K, x1 = 0.6939	910
288.04 K, x1 = 0.6047	540
288.05 K, x1 = 0.7915	1505
288.06 K, x1 = 0.506	267
288.07 K, x1 = 0.9049	2669
288.08 K, x1 = 0.2998	53
288.1 K, x1 = 1	5100
289.23 K, x1 = 0.0997	7.7
289.24 K, x1 = 0.2007	22.2
289.26 K, x1 = 0.3915	114
289.28 K, x1 = 0.6939	850
289.29 K, x1 = 0.6047	510
289.3 K, x1 = 0.7915	1387
289.31 K, x1 = 0.506	251
289.31 K, x1 = 0.9049	2464
289.32 K, x1 = 0.2998	51
289.96 K, x1 = 1	3700
290.21 K, x1 = 1	4300
290.49 K, x1 = 0.0997	7.5
290.5 K, x1 = 0.2007	21.3
290.51 K, x1 = 0.3915	107
290.52 K, x1 = 0.6047	470
290.52 K, x1 = 0.6939	770
290.53 K, x1 = 0.506	231
290.53 K, x1 = 0.7915	1251
290.53 K, x1 = 0.9049	2210
290.54 K, x1 = 0.2998	49
291.71 K, x1 = 0.0997	7.2
291.72 K, x1 = 0.2007	20.4
291.72 K, x1 = 0.3915	99
291.73 K, x1 = 0.2998	46
291.73 K, x1 = 0.506	214
291.73 K, x1 = 0.6047	430
291.73 K, x1 = 0.6939	700
291.73 K, x1 = 0.7915	1121
291.73 K, x1 = 0.9049	1968
292.02 K, x1 = 1	3052
292.32 K, x1 = 1	3520
292.9 K, x1 = 0.0997	6.9
292.91 K, x1 = 0.2007	19.6
292.91 K, x1 = 0.2998	43
292.91 K, x1 = 0.3915	93
292.91 K, x1 = 0.6047	391
292.92 K, x1 = 0.506	199
292.92 K, x1 = 0.6939	640
292.92 K, x1 = 0.7915	1017
292.92 K, x1 = 0.9049	1771
294.08 K, x1 = 1	2544
294.09 K, x1 = 0.0997	6.7
294.09 K, x1 = 0.2007	18.8
294.09 K, x1 = 0.2998	41
294.09 K, x1 = 0.3915	86
294.09 K, x1 = 0.506	185
294.09 K, x1 = 0.6047	358
294.09 K, x1 = 0.9049	1589
294.1 K, x1 = 0.6939	580
294.1 K, x1 = 0.7915	920
294.41 K, x1 = 1	2896
295.27 K, x1 = 0.0997	6.5
295.27 K, x1 = 0.2007	18
295.27 K, x1 = 0.2998	38.9
295.27 K, x1 = 0.3915	81
295.27 K, x1 = 0.506	172
295.27 K, x1 = 0.6047	329
295.27 K, x1 = 0.6939	530
295.27 K, x1 = 0.7915	840
295.27 K, x1 = 0.9049	1438
296.14 K, x1 = 1	2140
296.45 K, x1 = 0.0997	6.3
296.45 K, x1 = 0.2007	17.3
296.45 K, x1 = 0.2998	36.9
296.45 K, x1 = 0.3915	76
296.45 K, x1 = 0.506	160
296.45 K, x1 = 0.6047	302
296.45 K, x1 = 0.6939	490
296.45 K, x1 = 0.7915	760
296.45 K, x1 = 0.9049	1298
296.48 K, x1 = 1	2402
297.63 K, x1 = 0.0997	6.1
297.63 K, x1 = 0.2007	16.6
297.63 K, x1 = 0.2998	35
297.63 K, x1 = 0.3915	71
297.63 K, x1 = 0.506	149
297.63 K, x1 = 0.6047	278
297.63 K, x1 = 0.6939	450
297.63 K, x1 = 0.7915	700
297.63 K, x1 = 0.9049	1174
298.2 K, x1 = 1	1806
298.54 K, x1 = 1	2000
298.8 K, x1 = 0.0997	6
298.8 K, x1 = 0.2007	16
298.8 K, x1 = 0.2998	33.4
298.8 K, x1 = 0.3915	67
298.8 K, x1 = 0.6047	257
298.81 K, x1 = 0.506	140
298.81 K, x1 = 0.6939	410
298.81 K, x1 = 0.7915	640
